Assay results taken from PubChem BioAssay (NCI).
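Where inhibition never reached the appropriate level, the endpoint shown equals the highest concentration tested. Otherwise, values were interpolated linearly from a five-concentration, 48-hour dose response in 96-well plates. At the GI50, growth is halved. The concentration for full growth arrest is given as TGI.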

Legend:
Test in all cases: NCI-60 cell line screen, 48 h
TK-10 renal = tested on: TK-10 renal
OVCAR-8 ovarian = tested on: OVCAR-8 ovarian
HOP-62 NSCLC = tested on: HOP-62 NSCLC
SR leukemia = tested on: SR leukemia
A549 NSCLC = tested on: A549 NSCLC
MALME-3M melanoma = tested on: MALME-3M melanoma
SF-295 CNS = tested on: SF-295 CNS
SK-MEL-5 melanoma = tested on: SK-MEL-5 melanoma
CAKI-1 renal = tested on: CAKI-1 renal
NCI-H460 lung = tested on: NCI-H460 lung
MDA-MB-435 = tested on: MDA-MB-435
EKVX NSCLC = tested on: EKVX NSCLC
PC-3 prostate = tested on: PC-3 prostate
HCT-116 colon = tested on: HCT-116 colon
SK-MEL-28 melanoma = tested on: SK-MEL-28 melanoma
SNB-75 CNS = tested on: SNB-75 CNS
SK-MEL-2 melanoma = tested on: SK-MEL-2 melanoma
OVCAR-3 ovarian = tested on: OVCAR-3 ovarian
K-562 leukemia = tested on: K-562 leukemia
UO-31 renal = tested on: UO-31 renal
UACC-257 melanoma = tested on: UACC-257 melanoma
OVCAR-5 ovarian = tested on: OVCAR-5 ovarian
786-0 renal = tested on: 786-0 renal
NCI-H522 lung = tested on: NCI-H522 lung
MDA-MB-231 breast = tested on: MDA-MB-231 breast
M14 melanoma = tested on: M14 melanoma
CCRF-CEM leukemia = tested on: CCRF-CEM leukemia
COLO 205 colon = tested on: COLO 205 colon
HCC-2998 colon = tested on: HCC-2998 colon
MCF7 breast = tested on: MCF7 breast
SK-OV-3 ovarian = tested on: SK-OV-3 ovarian
A498 renal = tested on: A498 renal
SF-268 CNS = tested on: SF-268 CNS
HT29 colon = tested on: HT29 colon
HOP-92 NSCLC = tested on: HOP-92 NSCLC
OVCAR-4 ovarian = tested on: OVCAR-4 ovarian
SNB-19 CNS = tested on: SNB-19 CNS
KM12 colon = tested on: KM12 colon
T-47D breast = tested on: T-47D breast
NCI-H226 lung = tested on: NCI-H226 lung
HS 578T breast = tested on: HS 578T breast
SW-620 colon = tested on: SW-620 colon
NCI-H23 lung = tested on: NCI-H23 lung
IGROV1 ovarian = tested on: IGROV1 ovarian
SF-539 CNS = tested on: SF-539 CNS
SN12C renal = tested on: SN12C renal
DU-145 prostate = tested on: DU-145 prostate
UACC-62 melanoma = tested on: UACC-62 melanoma
HL-60(TB) leukemia = tested on: HL-60(TB) leukemia
LOX IMVI melanoma = tested on: LOX IMVI melanoma
RPMI-8226 leukemia = tested on: RPMI-8226 leukemia
BT-549 breast = tested on: BT-549 breast
U251 CNS = tested on: U251 CNS
ACHN renal = tested on: ACHN renal
NCI/ADR-RES ovarian = tested on: NCI/ADR-RES ovarian
RXF 393 renal = tested on: RXF 393 renal
HCT-15 colon = tested on: HCT-15 colon

Compound COc1ccc2c(c1)/C(=C/c1c(-c3ccc(C)cc3)nc3sc(C)cn13)C(=O)N2 has a GI50 (TK-10 renal) of 7.93 µM, a TGI (TK-10 renal) greater than 100 µM and a GI50 (OVCAR-8 ovarian) of 12.4 µM. For the same compound, the TGI (OVCAR-8 ovarian) was greater than 100 µM, the GI50 (HOP-62 NSCLC) was 19.7 µM and the TGI (HOP-62 NSCLC) was greater than 100 µM. The GI50 (SR leukemia) was 1.59 µM, the TGI (SR leukemia) was 28.7 µM and the GI50 (A549 NSCLC) was 12.5 µM. It also gave a TGI (A549 NSCLC) greater than 100 µM, a GI50 (MALME-3M melanoma) of 25.2 µM and a TGI (MALME-3M melanoma) greater than 100 µM. It also gave a GI50 (SF-295 CNS) of 11 µM, a TGI (SF-295 CNS) greater than 100 µM and a GI50 (SK-MEL-5 melanoma) of 11.9 µM. The TGI (SK-MEL-5 melanoma) was 30.5 µM, the GI50 (CAKI-1 renal) was 35.3 µM and the TGI (CAKI-1 renal) was greater than 100 µM. It also gave a GI50 (NCI-H460 lung) of 6.36 µM, a TGI (NCI-H460 lung) of 56.2 µM and a GI50 (MDA-MB-435) of 19 µM. It also gave a TGI (MDA-MB-435) greater than 100 µM, a GI50 (EKVX NSCLC) of 9.62 µM and a TGI (EKVX NSCLC) greater than 100 µM. It also gave a GI50 (PC-3 prostate) of 4.61 µM, a TGI (PC-3 prostate) greater than 100 µM and a GI50 (HCT-116 colon) of 4.71 µM. The TGI (HCT-116 colon) was 18.7 µM, the GI50 (SK-MEL-28 melanoma) was 23.4 µM and the TGI (SK-MEL-28 melanoma) was greater than 100 µM. The GI50 (SNB-75 CNS) was 11.8 µM, the TGI (SNB-75 CNS) was greater than 100 µM and the GI50 (SK-MEL-2 melanoma) was 14.6 µM. The TGI (SK-MEL-2 melanoma) was 47.7 µM, the GI50 (OVCAR-3 ovarian) was 15.5 µM and the TGI (OVCAR-3 ovarian) was greater than 100 µM. It also gave a GI50 (K-562 leukemia) of 4.95 µM, a TGI (K-562 leukemia) greater than 100 µM and a GI50 (UO-31 renal) of 10.5 µM. For the same compound, the TGI (UO-31 renal) was greater than 100 µM, the GI50 (UACC-257 melanoma) was 16.8 µM and the TGI (UACC-257 melanoma) was 57.1 µM. It also gave a GI50 (OVCAR-5 ovarian) of 16.6 µM, a TGI (OVCAR-5 ovarian) of 87.3 µM and a GI50 (786-0 renal) of 6.68 µM. For the same compound, the TGI (786-0 renal) was 50.2 µM, the GI50 (NCI-H522 lung) was 13.5 µM and the TGI (NCI-H522 lung) was greater than 100 µM. The GI50 (MDA-MB-231 breast) was 13.3 µM, the TGI (MDA-MB-231 breast) was greater than 100 µM and the GI50 (M14 melanoma) was 13.2 µM. The TGI (M14 melanoma) was 59.1 µM, the GI50 (CCRF-CEM leukemia) was 6.84 µM and the TGI (CCRF-CEM leukemia) was 80.3 µM. For the same compound, the GI50 (COLO 205 colon) was 19.8 µM, the TGI (COLO 205 colon) was greater than 100 µM and the GI50 (HCC-2998 colon) was 13.4 µM. For the same compound, the TGI (HCC-2998 colon) was 43.7 µM, the GI50 (MCF7 breast) was 12.1 µM and the TGI (MCF7 breast) was greater than 100 µM. The GI50 (SK-OV-3 ovarian) was 23.9 µM, the TGI (SK-OV-3 ovarian) was greater than 100 µM and the GI50 (A498 renal) was 20.2 µM. For the same compound, the TGI (A498 renal) was 60.6 µM, the GI50 (SF-268 CNS) was 11.1 µM and the TGI (SF-268 CNS) was greater than 100 µM. The GI50 (HT29 colon) was 8.92 µM, the TGI (HT29 colon) was greater than 100 µM and the GI50 (HOP-92 NSCLC) was 10.3 µM. The TGI (HOP-92 NSCLC) was 60.5 µM, the GI50 (OVCAR-4 ovarian) was 14.2 µM and the TGI (OVCAR-4 ovarian) was greater than 100 µM. It also gave a GI50 (SNB-19 CNS) of 20.6 µM, a TGI (SNB-19 CNS) greater than 100 µM and a GI50 (KM12 colon) of 23.1 µM. For the same compound, the TGI (KM12 colon) was greater than 100 µM, the GI50 (T-47D breast) was 5.5 µM and the TGI (T-47D breast) was greater than 100 µM. The GI50 (NCI-H226 lung) was 20.1 µM, the TGI (NCI-H226 lung) was 95.9 µM and the GI50 (HS 578T breast) was 19.8 µM. It also gave a TGI (HS 578T breast) greater than 100 µM, a GI50 (SW-620 colon) of 16.8 µM and a TGI (SW-620 colon) greater than 100 µM. The GI50 (NCI-H23 lung) was 6.86 µM, the TGI (NCI-H23 lung) was 32.5 µM and the GI50 (IGROV1 ovarian) was 32.9 µM. The TGI (IGROV1 ovarian) was greater than 100 µM, the GI50 (SF-539 CNS) was 20.3 µM and the TGI (SF-539 CNS) was greater than 100 µM. It also gave a GI50 (SN12C renal) of 13.9 µM, a TGI (SN12C renal) of 31.9 µM and a GI50 (DU-145 prostate) of 4.75 µM. The TGI (DU-145 prostate) was greater than 100 µM, the GI50 (UACC-62 melanoma) was 13.1 µM and the TGI (UACC-62 melanoma) was 32.5 µM. The GI50 (HL-60(TB) leukemia) was 4.85 µM and the TGI (HL-60(TB) leukemia) was 30.8 µM.
Work on CO[C@@]12C[C@@H](CNC(=O)c3cc(Br)c[nH]3)O[C@@H]1NC(=O)N2 yielded a TGI (TK-10 renal) greater than 100 µM, a TGI (OVCAR-8 ovarian) greater than 100 µM and a TGI (HOP-62 NSCLC) greater than 100 µM. For the same compound, the TGI (A549 NSCLC) was greater than 100 µM, the TGI (MALME-3M melanoma) was greater than 100 µM and the TGI (SF-295 CNS) was greater than 100 µM. It also gave a TGI (SK-MEL-5 melanoma) greater than 100 µM, a TGI (LOX IMVI melanoma) greater than 100 µM and a TGI (CAKI-1 renal) greater than 100 µM. The TGI (NCI-H460 lung) was greater than 100 µM, the TGI (MDA-MB-435) was greater than 100 µM and the TGI (EKVX NSCLC) was greater than 100 µM. For the same compound, the TGI (PC-3 prostate) was greater than 100 µM, the TGI (HCT-116 colon) was greater than 100 µM and the TGI (SK-MEL-28 melanoma) was greater than 100 µM. For the same compound, the TGI (SNB-75 CNS) was greater than 100 µM, the TGI (SK-MEL-2 melanoma) was greater than 100 µM and the TGI (RPMI-8226 leukemia) was greater than 100 µM. It also gave a TGI (OVCAR-3 ovarian) greater than 100 µM, a TGI (BT-549 breast) greater than 100 µM and a TGI (UO-31 renal) greater than 100 µM. The TGI (UACC-257 melanoma) was greater than 100 µM, the TGI (OVCAR-5 ovarian) was greater than 100 µM and the TGI (786-0 renal) was greater than 100 µM. The TGI (NCI-H522 lung) was greater than 100 µM, the TGI (MDA-MB-231 breast) was greater than 100 µM and the TGI (M14 melanoma) was greater than 100 µM. The TGI (CCRF-CEM leukemia) was greater than 100 µM, the TGI (U251 CNS) was greater than 100 µM and the TGI (COLO 205 colon) was greater than 100 µM. It also gave a TGI (ACHN renal) greater than 100 µM, a TGI (MCF7 breast) greater than 100 µM and a TGI (SK-OV-3 ovarian) greater than 100 µM. The TGI (A498 renal) was greater than 100 µM, the TGI (SF-268 CNS) was greater than 100 µM and the TGI (HT29 colon) was greater than 100 µM. For the same compound, the TGI (OVCAR-4 ovarian) was greater than 100 µM, the TGI (SNB-19 CNS) was greater than 100 µM and the TGI (KM12 colon) was greater than 100 µM. The TGI (T-47D breast) was greater than 100 µM, the TGI (NCI-H226 lung) was greater than 100 µM and the TGI (NCI/ADR-RES ovarian) was greater than 100 µM. For the same compound, the TGI (HS 578T breast) was greater than 100 µM, the TGI (SW-620 colon) was greater than 100 µM and the TGI (NCI-H23 lung) was greater than 100 µM. For the same compound, the TGI (IGROV1 ovarian) was greater than 100 µM, the TGI (SF-539 CNS) was greater than 100 µM and the TGI (SN12C renal) was greater than 100 µM. It also gave a TGI (DU-145 prostate) greater than 100 µM, a TGI (UACC-62 melanoma) greater than 100 µM and a TGI (RXF 393 renal) greater than 100 µM. For the same compound, the TGI (HCT-15 colon) was greater than 100 µM.
